The values that follow come from patent publication US11161865B2, “Radiolabeled and fluorescent PARP inhibitors for imaging and radiotherapy” (THE TRUSTEES OF THE UNIVERSITY OF PENNSYLVANIA, priority 2017, dated 2021).

In series [1] the test system is neuroblastoma cell lines. The series is described as follows: Cell viability dose response curves in neuroblastoma cell lines. It counts as cell-based. Conditions: in vitro, FIG. 2A. As to the method:
Two sets of cell viability assays were performed to characterize [^211At]-Compound 1 in neuroblastoma, ovarian, and breast cancer cells. […] The first assay performed was a screen of 25 cell lines at a single concentration of 5 μCi/mL. […] Following treatment cell viability was assessed using a commercially available kit that measures ATP and data was normalized to healthy controls to produce % surviving fraction. […] Cells were treated for 72 hrs followed by evaluation of cell viability. […] Effective concentrations to reduce 50% growth compared to healthy controls were calculated using standard curve fitting software.

Series [2] relates to IMR-05 neuroblastoma xenograft. As to the kind of experiment: In vivo biodistribution in IMR-05 neuroblastoma xenograft model. Also on record: species or system nude SHC mice. Conditions: 5 μCi intravenously; for tumor versus normal tissue distribution of activity: 2 hrs. The procedure:
To evaluate the in vivo biodistribution of [211A]-Compound 1, an IMR-05 neuroblastoma xenograft model in nude SHC mice was utilized. Xenografts were generated by the subcutaneous injection of 5-10 million IMR-05 neuroblastoma cells. Tumors were then allowed to engraft for 3-4 weeks when they reached 200-300 mm^3. Animals were then intravenously injected with 5 μCi of [211At]-Compound 1 and tissues were harvested at time points of […], 1 and 2 hrs. Samples were then assayed for radioactivity on a gamma counter and data was normalized to percent injected dose by divining the amount of radioactivity in the tissue by the total amount injected. […] Tissue was then flash frozen and 20 micron thick sections were produced using a cryotome. Sections were then exposed to phosphor films and films were read on a digital phosphorimager.

The subject of series [3] is phosphorylated ATM and H2AX. The series is described as follows: Flow cytometry of phosphorylated ATM and H2AX (DNA double strand breaks). The conditions noted are these: 1 μCi/mL. It is filed as cell-based. As to the method: To accomplish this, γH2AX and PARP-1 were measured after being treated NLF cells for 1, 4, or 24 hours at doses of 0.1, or 1 μCi/mL. Data was analyzed by quantifying small regions of interest in the nucleus of cells and by nuclear co-localization. […] In flow cytometry experiments, DNA damage was measured by quantifying phosphorylated ATM and H2AX. Lastly, cell cycle analysis was evaluated using propidium iodide staining in control vs. [^211At]-Compound 1 treated cells.
On the technique in general: In flow cytometry, cells or beads pass a laser one at a time.

For `O=C1NCCn2c(-c3ccc([211At])cc3)nc3cccc1c32` [[^211At]-Compound 1], in series [1], the specificity of cytotoxicity entry is recorded as “PARP-1 specific”. In series [2], the “significant deastatination (accumulation of activity in lung, thyroid (neck), or stomach)” value is listed as “not observed” and the “tumor versus normal tissue distribution of activity” value is on record as “concentration of activity in the tumor”. In addition, the “tumor versus normal tissue distribution of activity” value in series [2] (listed as 211At-Compound 1) is listed as “higher tumor to tissue ratios in the majority of normal organs”. The “increase in phosphorylation of ATM and H2AX (DNA double strand breaks) compared to control” value in series [3] was 98%.
